These compounds were tested against T1, Sex hormone-binding globulin (Homo sapiens) (UniProt P04278).
T1 sequence (whole entry): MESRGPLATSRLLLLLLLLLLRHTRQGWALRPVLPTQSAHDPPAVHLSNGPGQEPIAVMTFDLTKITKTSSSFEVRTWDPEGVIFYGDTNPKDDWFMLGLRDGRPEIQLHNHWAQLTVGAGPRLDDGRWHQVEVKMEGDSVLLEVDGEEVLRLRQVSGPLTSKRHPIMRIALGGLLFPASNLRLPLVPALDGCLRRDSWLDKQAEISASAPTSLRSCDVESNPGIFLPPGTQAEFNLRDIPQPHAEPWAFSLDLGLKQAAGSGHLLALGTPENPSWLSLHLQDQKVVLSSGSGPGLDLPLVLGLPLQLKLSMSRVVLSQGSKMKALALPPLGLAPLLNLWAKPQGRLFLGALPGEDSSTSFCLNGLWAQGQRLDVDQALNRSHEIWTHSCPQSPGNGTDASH
Description: Binding affinity against transport protein testosterone binding globulin.

| SMILES | Log 1/K |
| --- | --- |
| C[C@]12CC[C@H]3[C@@H](CCC4=CC(=O)CC[C@@]43C)[C@@H]1CC[C@@H]2O | 9.2 |
| C[C@]12CC[C@@H]3c4ccc(O)cc4CC[C@H]3[C@@H]1C[C@@H](O)[C@@H]2O | 6.63 |
| C[C@]12CC[C@@H](O)C[C@H]1CC[C@@H]1[C@@H]2CC[C@]2(C)C(=O)CC[C@@H]12 | 6.15 |
| C[C@]12CC[C@H](O)CC1=CCC1C2CC[C@]2(C)C(=O)CCC12 (stereo partly drawn) | 7.82 |
| C[C@]12CCC(=O)C=C1CCC1C3CC[C@H](C(=O)CO)[C@@]34C[C@H](OC4O)C12 (stereo partly drawn) | 5.32 |
| C[C@]12CCC(=O)C=C1CC[C@@H]1[C@@H]2CC[C@@]2(C)[C@H]1CC[C@]2(O)C(=O)CO | 7.2 |
| C[C@]12CC[C@H]3[C@@H](CCC4=CC(=O)CC[C@@]43C)[C@@H]1CC[C@@H]2C(=O)CO | 7.38 |
| C[C@]12C[C@H](O)[C@H]3[C@@H](CCC4=CC(=O)CC[C@@]43C)[C@@H]1CC[C@@H]2C(=O)CO | 6.34 |
| C[C@]12CCC(=O)C=C1CC[C@@H]1[C@@H]2[C@@H](O)C[C@@]2(C)[C@H]1CC[C@]2(O)C(=O)CO | 6.2 |
| CC(=O)[C@@]1(O)CC[C@H]2[C@@H]3CCC4=CC(=O)CC[C@]4(C)[C@H]3CC[C@@]21C | 7 |
| CC(=O)[C@H]1CC[C@H]2[C@@H]3CCC4=CC(=O)CC[C@]4(C)[C@H]3CC[C@]12C | 6.94 |
| C[C@]12CC[C@@H](O)C[C@@H]1CC[C@@H]1[C@@H]2CC[C@]2(C)C(=O)CC[C@@H]12 | 7.15 |
| C[C@]12CC[C@H](O)C[C@@H]1CC[C@@H]1[C@@H]2CC[C@]2(C)[C@@H](O)CC[C@@H]12 | 9.11 |
| C[C@]12CCC(=O)C=C1CC[C@@H]1[C@@H]2CC[C@]2(C)C(=O)CC[C@@H]12 | 7.46 |
| C[C@]12CCC(=O)C=C1CC[C@@H]1[C@@H]2C(=O)C[C@@]2(C)[C@H]1CC[C@]2(O)C(=O)CO | 6.43 |
| C[C@]12CCC(=O)C[C@@H]1CC[C@@H]1[C@@H]2CC[C@]2(C)[C@@H](O)CC[C@@H]12 | 9.74 |
| CC(=O)[C@H]1CC[C@H]2[C@@H]3CC=C4C[C@@H](O)CC[C@]4(C)[C@H]3CC[C@]12C | 7.15 |
| CC(=O)[C@@]1(O)CC[C@H]2[C@@H]3CC=C4C[C@@H](O)CC[C@]4(C)[C@H]3CC[C@@]21C | 6.36 |
